# Experimental data as given in patent US8338335B2, “Synergistic herbicidal composition containing fluroxypyr and penoxsulam, halosulfuron-methyl, imazamox or imazethapyr” (Dow Agrosciences, LLC, priority 2009, dated 2012).
# “And” between values parts separate entries of the source, which are not always exact repeats. Equal values may be shown once.
# How the values were obtained:
# [1] = tested on: Sesbania exaltata, SEBEX; Hemp sesbania; assay: Postemergence herbicidal activity of mixtures in the field, SEBEX; assay type: in vivo
# Method: (§1) Field trials were conducted in rice and turf using standard herbicide small plot research methodology. Plots varied from 3×3 meter (m) to 3×10 m (width×length) with 4 replicates per treatment. The rice crop was grown using normal cultural practices for fertilization, seeding, watering, flooding and maintenance to ensure good growth of the crop and the weeds. The turf crop was a permanent established crop of centipedegrass that was grown and maintained under normal cultural practices for fertilization, watering, mowing and disease maintenance to ensure good growth of the crop and the weeds.
# (§2) All treatments in the field trials were applied using a carbon dioxide (CO2) backpack sprayer calibrated to apply 187 L/ha spray volume. Commercially available products of penoxsulam and fluoroxypyr-meptyl were mixed in water at appropriately formulated product rates to achieve the desired rates based on a unit area of application (hectare) to achieve the desired rates as shown. Treatments were rated at 7 to 33 days after application as compared to the untreated control plants. Visual weed control was scored on a scale of 0 to 100 percent where 0 corresponds to no injury and 100 corresponds to complete kill. […]
# Centipedegrass (ERLOP) = assay: Crop injury (safening) in the field, centipedegrass; assay type: in vivo, Eremochloa ophiuroides
# Method: as §1, §2
# [2] = tested on: Leptochloa chinensis (LEFCH); Chinese sprangletop; assay: Postemergence herbicidal activity of mixtures in the greenhouse, LEFCH; assay type: in vivo; conditions: 21 DAA
# Method: (§3) Seeds of the desired test plant species were planted in 80% mineral soil/20% grit planting mixture, which typically has a pH of 7.2 and an organic matter content of about 2.9 percent, in plastic pots with a surface area of 128 square centimeters (cm^2). The growing medium was steam sterilized. The plants were grown for 7-19 days in a greenhouse with an approximate 14-hour (h) photoperiod which was maintained at about 29° C. during the day and 26° C. during the night. Nutrients and water were added on a regular basis and supplemental lighting was provided with overhead metal halide 1000-Watt lamps as necessary. The plants were treated with postemergence foliar applications when they reached the third to fourth true leaf stage. All treatments were applied using a randomized complete block trial design, with 4 replications per treatment.
# (§4) Treatments consisted of the compounds as listed in Tables 1, 3, 5 and 6, each compound applied alone and in combination. Formulated amounts of penoxsulam, halosulfuron-methyl, imazamox and fluoroxypyr-meptyl ester, were placed in 60 milliliter (mL) glass vials and dissolved in a volume of 60 mL of a water solution containing Agri-dex crop oil concentrate in a 1% volume per volume (v/v) ratio. Compound requirements are based upon a 12 mL application volume at a rate of 187 liters per hectare (L/ha). Spray solutions of the mixtures were prepared by adding the stock solutions to the appropriate amount of dilution solution to form 12 mL spray solution with active ingredients in single and two way combinations. Formulated compounds were applied to the plant material with an overhead Mandel track sprayer equipped with 8002E nozzles calibrated to deliver 187 L/ha at a spray height of 18 inches (43 centimeters (cm)) above average plant canopy.
# (§5) The treated plants and control plants were placed in a greenhouse as described above and watered by sub-irrigation to prevent wash-off of the test compounds. […] Visual weed control was scored on a scale of 0 to 100 percent where 0 corresponds to no injury and 100 corresponds to complete kill. […]
# [3] = tested on: Cyperus esculentus (CYPES); yellow nutsedge; assay: Postemergence herbicidal activity of mixtures in the greenhouse, CYPES; assay type: in vivo; conditions: 21 DAA
# Method: as §3, §4
# (§6) The treated plants and control plants were placed in a greenhouse as described above and watered by sub-irrigation to prevent wash-off of the test compounds. Treatments were rated at 7 to 21 days after application (DAA) as compared to the untreated control plants. Visual weed control was scored on a scale of 0 to 100 percent where 0 corresponds to no injury and 100 corresponds to complete kill.
# (§7) Colby's equation was used to determine the herbicidal effects expected from the mixtures (Colby, S. R. Calculation of the synergistic and antagonistic response of herbicide combinations. Weeds 1967, 15, 20-22).
# (§8) The following equation was used to calculate the expected activity of mixtures containing two active ingredients, A and B: Expected=A+B−(A×B/100)
# [4] = tested on: Echinochloa crus-galli (ECHCG); barnyardgrass; assay: Postemergence herbicidal activity of mixtures in the greenhouse, ECHCG; assay type: in vivo
# Method: as §3, §4, §6, §7, §8
# [5] = tested on: Caperonia palustris, CNPPA; Texasweed; assay: Postemergence herbicidal activity of mixtures in the field, CNPPA; assay type: in vivo
# Method: as §1
# All treatments in the field trials were applied using a carbon dioxide (CO2) backpack sprayer calibrated to apply 187 L/ha spray volume. Commercially available products of penoxsulam and fluoroxypyr-meptyl were mixed in water at appropriately formulated product rates to achieve the desired rates based on a unit area of application (hectare) to achieve the desired rates as shown. Treatments were rated at 7 to 33 days after application as compared to the untreated control plants. Visual weed control was scored on a scale of 0 to 100 percent where 0 corresponds to no injury and 100 corresponds to complete kill.
# as §7, §8
# [6] = tested on: Leptochloa spp, LEFSS; sprangletop; assay: Postemergence herbicidal activity of mixtures in the field, LEFSS; assay type: in vivo
# Method: as §1
# All treatments in the field trials were applied using a carbon dioxide (CO2) backpack sprayer calibrated to apply 187 L/ha spray volume. […] Treatments were rated at 7 to 33 days after application as compared to the untreated control plants. Visual weed control was scored on a scale of 0 to 100 percent where 0 corresponds to no injury and 100 corresponds to complete kill.
# as §7, §8
# Sunflower (HELAN) = assay: Crop injury (safening) in the field, sunflower; assay type: in vivo, Helianthus annuus; conditions: Fluroxypyr-meptyl 100 g ae/ha alone
# [7] = tested on: Brachiaria platyphylla (BRAPP); broadleaf signalgrass; assay: Postemergence herbicidal activity of mixtures in the greenhouse, BRAPP; assay type: in vivo; conditions: 21 DAA
# Method: as §3, §4, §6, §7, §8
# [8] = tested on: Scirpus juncoides (SCPJU); Japanese bulrush; assay: Postemergence herbicidal activity of mixtures in the greenhouse, SCPJU; assay type: in vivo
# Method: as §3
# Treatments consisted of the compounds as listed in Tables 1, 3, 5 and 6, each compound applied alone and in combination. […]
# as §5
# [9] = tested on: Plantago lanceolata, PLALA; narrow-leaved plantain; assay: Postemergence herbicidal activity of mixtures in the field, PLALA; assay type: in vivo
# Method: as §1, §2
# [10] = tested on: Panicum dichotomiflorum, PANDI; fall panicum; assay: Postemergence herbicidal activity of mixtures in the field, PANDI; assay type: in vivo
# Method: as §1, §2
# [11] = Fluroxypyr-meptyl 97 g ae/ha alone
# [12] = Fluroxypyr-meptyl 200 g ae/ha alone
# [13] = Fluroxypyr-meptyl 290 g ae/ha alone
# [14] = Halosulfuron-methyl 4.4 g ai/ha alone
# [15] = Halosulfuron-methyl 18 g ai/ha alone
smiles,measurement,setting,value
"CCCCCCC(C)OC(=O)COc1nc(F)c(Cl)c(N)c1Cl (centres unmarked) [Fluroxypyr-meptyl, fluoroxypyr-meptyl ester]",% Control SEBEX Ob,[1]; [11],57%
same,% Injury ERLOP Ob,"Centipedegrass (ERLOP); Fluroxypyr-meptyl 210 g ae/ha alone, field",6%
same,% Control LEFCH Ob,[2]; [12],15%
same,% Control CYPES Ob,"[3]; Fluroxypyr-meptyl 50 g ae/ha alone, Table 5",1%
same,% Control CYPES Ob,"[3]; Fluroxypyr-meptyl 100 g ae/ha alone, Table 5",3%
same,% Control CYPES Ob,"[3]; Fluroxypyr-meptyl 100 g ae/ha alone, Table 6",10%
same,% Control CYPES Ob,"[3]; Fluroxypyr-meptyl 200 g ae/ha alone, Table 5",8%
same,% Control CYPES Ob,"[3]; Fluroxypyr-meptyl 200 g ae/ha alone, Table 6",9%
same,% Control ECHCG Ob,"[4]; Fluroxypyr-meptyl 50 g ae/ha alone, 21 DAA, Table 5",6%
same,% Control ECHCG Ob,"[4]; Fluroxypyr-meptyl 50 g ae/ha alone, 21 DAA, Table 6",1.3%
same,% Control ECHCG Ob,"[4]; Fluroxypyr-meptyl 100 g ae/ha alone, 21 DAA, Table 5",2%
same,% Control ECHCG Ob,"[4]; Fluroxypyr-meptyl 100 g ae/ha alone, 21 DAA, Table 6",4%
same,% Control ECHCG Ob,"[4]; Fluroxypyr-meptyl 200 g ae/ha alone, 21 DAA, Table 5",11%
same,% Control ECHCG Ob,"[4]; Fluroxypyr-meptyl 200 g ae/ha alone, 21 DAA, Table 6",6%
same,% Control ECHCG Ob,"[4]; Fluroxypyr-meptyl 340 g ae/ha alone, Table 1",0%
same,% Control CNPPA Ob,[5]; [11],45%
same,% Control CNPPA Ob,[5]; [13],60%
same,% Control LEFSS Ob,[6]; [13],0%
same,% Injury HELAN Ob,Sunflower (HELAN),31% and 34%
same,% Control BRAPP Ob,[7]; Fluroxypyr-meptyl 50 g ae/ha alone,10%
same,% Control BRAPP Ob,[7]; Fluroxypyr-meptyl 100 g ae/ha alone,23%
same,% Control BRAPP Ob,[7]; [12],20%
same,% Control SCPJU Ob,[8]; Fluroxypyr-meptyl 70 g ae/ha alone,60%
same,% Control PLALA Ob,[9]; Fluroxypyr-meptyl 140 g ae/ha alone,0%
same,% Control PANDI Ob,[10]; [13],0%
"COc1cnc(OC)n2nc(NS(=O)(=O)c3c(OCC(F)F)cccc3C(F)(F)F)nc12 [Penoxsulam, 2-(2,2-difluoroethoxy)-N-(5,8-dimethoxy-[1,2,4]triazolo[1,5-c]pyrimidin-2-yl)-6-(trifluoromethyl)benzenesulfonamide]",% Control SEBEX Ob,[1]; Penoxsulam 22 g ai/ha alone,76%
same,% Injury ERLOP Ob,Centipedegrass (ERLOP); in vivo,15%
same,% Control ECHCG Ob,[4]; Penoxsulam 15 g ai/ha alone,84% and 78% and 62%
same,% Control CNPPA Ob,[5]; Penoxsulam 35 g ai/ha alone,67%
same,% Control SCPJU Ob,[8]; Penoxsulam 10 g ai/ha alone,2%
same,% Control PLALA Ob,[9]; Penoxsulam 15 g ai/ha alone,13%
"CCc1cnc(C2=NC(C)(C(C)C)C(=O)N2)c(C(=O)O)c1 (centres unmarked) [Imazethapyr, 2-[4,5-dihydro-4-methyl-4-(1-methylethyl)-5-oxo-1H-imidazol-2-yl]-5-ethyl-3-pyridinecarboxylic acid]",% Control LEFSS Ob,[6]; Imazethapyr 70 g ai/ha alone,28%
same,% Control PANDI Ob,[10]; Imazethapyr 70 g ai/ha alone,40%
"COCc1cnc(C2=NC(C)(C(C)C)C(=O)N2)c(C(=O)O)c1 (centres unmarked) [Imazamox, 2-[4,5-dihydro-4-methyl-4-(1-methylethyl)-5-oxo-1H-imidazol-2-yl]-5-(methoxymethyl)-3-pyridinecarboxylic acid]",% Control CYPES Ob,[3]; Imazamox 8.8 g ai/ha alone,8%
same,% Control CYPES Ob,[3]; Imazamox 18 g ai/ha alone,42%
same,% Control ECHCG Ob,"[4]; Imazamox 4.4 g ai/ha alone, 21 DAA",1.3%
same,% Control ECHCG Ob,"[4]; Imazamox 8.8 g ai/ha alone, 21 DAA",29%
same,% Control ECHCG Ob,"[4]; Imazamox 18 g ai/ha alone, 21 DAA",85%
same,% Control BRAPP Ob,[7]; Imazamox 4.4 g ai/ha alone,3%
same,% Control BRAPP Ob,[7]; Imazamox 8.8 g ai/ha alone,46%
"COC(=O)c1c(Cl)nn(C)c1S(=O)(=O)NC(=O)Nc1nc(OC)cc(OC)n1 [Halosulfuron-methyl, methyl 3-chloro-5-[[[[(4,6-dimethoxy-2-pyrimidinyl)amino]carbonyl]amino]sulfonyl]-1-methyl-1H-pyrazole-4-carboxylate]",% Control LEFCH Ob,[2]; [14],2%
same,% Control LEFCH Ob,[2]; [15],8%
same,% Control CYPES Ob,[3]; [14],68%
same,% Control CYPES Ob,[3]; Halosulfuron-methyl 8.8 g ai/ha alone,73%
same,% Control CYPES Ob,[3]; [15],78%
same,% Control ECHCG Ob,"[4]; Halosulfuron-methyl 8.8 g ai/ha alone, 21 DAA",3%
same,% Control ECHCG Ob,"[4]; Halosulfuron-methyl 18 g ai/ha alone, 21 DAA",6%
